Measured values reported in patent publication US9499550B2 (BRISTOL-MYERS SQUIBB COMPANY, priority 2012, dated 2016).
Where two headings read alike, the source gives them in different places.

Assays:
[1] = tested on: HCV genotype 1a (H77 strain) replicon in HUH-7 cells; assay: HCV replicon luciferase reporter assay, genotype 1a; format: cell-based; details: Hepatitis C virus, Huh-7, 72 h, 3 days incubation
How it was run: (§1)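 Replicon inhibition for both genotypes was measured as Renilla luciferase signal (EnduRen, 7.5 μM final, 2 h) after 3-day, 37° C exposure of replicon-bearing HUH-7 cells in 4% FCS DMEM, 0.5% DMSO. The 1b construct carries S1179I; the 1a H77 construct carries P1496L and S2204I. Twenty-point, 3-fold dilutions were fitted four-parametrically for EC50, and CC50 was taken from multiplexed Cell Titer-Blue.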

[2] = tested on: HCV genotype 1b (Con1) replicon in HUH-7 cells; assay: HCV replicon luciferase reporter assay, genotype 1b; format: cell-based; details: Hepatitis C virus, Huh-7, 72 h, 3 days incubation
How it was run: as §1

[3] = HCV genotype 1a replicon luciferase, read-out: LE_1a (EC50)
[4] = HCV genotype 1a replicon luciferase, read-out: LE_1a (EC50, range)
[5] = HCV genotype 1b replicon luciferase, read-out: LE_1b (EC50)
[6] = HCV genotype 1b replicon luciferase, read-out: LE_1b (EC50, range)
[7] = HCV genotype 1a replicon luciferase assay, range class, read-out: LE_1a (EC50, range)
[8] = HCV genotype 1b replicon luciferase assay, range class, read-out: LE_1b (EC50, range)
[9] = GETYPE1A, HCV genotype 1a replicon luciferase, read-out: LE_1a (EC50, range)
[10] = GETYPE1B, HCV genotype 1b replicon luciferase, read-out: LE_1b (EC50, range)

Compound	EC50 [1, 4] [nM]	EC50 [2, 6] [nM]	further results
CC[C@@H]1C[C@@H](C)CC/C=C\[C@@H]2C[C@@]2(C(=O)NS(=O)(=O)C2CC2)NC(=O)[C@@H]2C[C@@H](Oc3nccc4c5c(ccc34)OCCO5)CN2C(=O)[C@H]1NC(=O)OC(C)(C)C(C)(F)F [Compound 5335, 3,3-difluoro-2-methylbutan-2-yl((2R,6S,7R,9S,13aS,14aR,16aS,Z)-14a-((cyclopropylsulfonyl)carbamoyl)-2-((2,3-dihydro-[1,4]dioxino[2,3-f]isoquinolin-7-yl)oxy)-7-ethyl-9-methyl-5,16-dioxo-1,2,3,5,6,7,8,9,10,11,13a,14,14a,15,16,16a-hexadecahydrocyclopropa[e]pyrrolo[1,2-a][1,4]diazacyclopentadecin-6-yl)carbamate]	4.82 to 103	< 5.46	EC50 [1, 3]: 6.5 nM; EC50 [2, 5]: 2.03 nM
CCn1nc(O[C@@H]2C[C@H]3C(=O)N[C@]4(C(=O)NS(=O)(=O)C5(C)CC5)C[C@H]4/C=C\CC[C@H](C)C[C@@H](C)[C@H](NC(=O)C(=O)N(C)C)C(=O)N3C2)c2ccccc2c1=O [Compound 5062, N1-((2R,6S,7R,9S,13aS,14aR,16aS,Z)-2-((3-ethyl-4-oxo-3,4-dihydrophthalazin-1-yl)oxy)-7,9-dimethyl-14a-(((1-methylcyclopropyl)sulfonyl)carbamoyl)-5,16-dioxo-1,2,3,5,6,7,8,9,10,11,13a,14,14a,15,16,16a-hexadecahydrocyclopropa[e]pyrrolo[1,2-a][1,4]diazacyclopentadecin-6-yl)-N2,N2-dimethyloxalamide]	> 87.4	> 87.4	EC50 [1, 3]: ≥ 1000 nM; EC50 [2, 5]: 1000 nM
CCOc1nnc(O[C@@H]2C[C@H]3C(=O)N[C@]4(C(=O)NS(=O)(=O)C5CC5)C[C@H]4/C=C\CC[C@@H](C)C[C@@H](CC)[C@H](NC(=O)OC(C)(C)C)C(=O)N3C2)c2ccccc12 [Compound 5043, tert-butyl ((2R,6S,7R,9R,13aS,14aR,16aS,Z)-14a-((cyclopropylsulfonyl)carbamoyl)-2-((4-ethoxyphthalazin-1-yl)oxy)-7-ethyl-9-methyl-5,16-dioxo-1,2,3,5,6,7,8,9,10,11,13a,14,14a,15,16,16a-hexadecahydrocyclopropa[e]pyrrolo[1,2-a][1,4]diazacyclopentadecin-6-yl)carbamate]	< 5.46	< 5.46	–
COc1ccc(-c2nc(O[C@@H]3C[C@H]4C(=O)N[C@]5(C(=O)NS(=O)(=O)C6CC6)C[C@H]5/C=C\CC[C@@H](C)C[C@@H](C)[C@H](NC(=O)OC(C)(C)C)C(=O)N4C3)c3ccc(OC)cc3n2)cc1 [Compound 5002, tert-butyl ((2R,6S,7R,9R,13aS,14aR,16aS,Z)-14a-((cyclopropylsulfonyl)carbamoyl)-2-((7-methoxy-2-(4-methoxyphenyl)quinazolin-4-yl)oxy)-7,9-dimethyl-5,16-dioxo-1,2,3,5,6,7,8,9,10,11,13a,14,14a,15,16,16a-hexadecahydrocyclopropa[e]pyrrolo[1,2-a][1,4]diazacyclopentadecin-6-yl)carbamate]	< 5.46	< 5.46	–
COc1ccc2c(O[C@@H]3C[C@H]4C(=O)N[C@]5(C(=O)NS(=O)(=O)C6(CF)CC6)C[C@H]5/C=C\CC[C@@H](C)C[C@@H](C)[C@H](NC(=O)OC(C)(C)C)C(=O)N4C3)nc(N3CCCC3)nc2c1 [Compound 3014, tert-butyl ((2R,6S,7R,9R,13aS,14aR,16aS,Z)-14a-(((1-(fluoromethyl)cyclopropyl)sulfonyl)carbamoyl)-2-((7-methoxy-2-(pyrrolidin-1-yl)quinazolin-4-yl)oxy)-7,9-dimethyl-5,16-dioxo-1,2,3,5,6,7,8,9,10,11,13a,14,14a,15,16,16a-hexadecahydrocyclopropa[e]pyrrolo[1,2-a][1,4]diazacyclopentadecin-6-yl)carbamate]	–	–	EC50 [1, 7]: 4.82 to 103 nM; EC50 [2, 8]: < 5.46 nM
C[C@@H]1CC/C=C\[C@@H]2C[C@@]2(C(=O)NS(=O)(=O)C2(C)CC2)NC(=O)[C@@H]2C[C@@H](Oc3nccc4c5c(ccc34)CCCO5)CN2C(=O)[C@@H](NC(=O)OC(C)(C)C(F)(F)F)[C@H](C)C1 [Compound 6058, 1,1,1-trifluoro-2-methylpropan-2-yl((2R,6S,7R,9R,13aS,14aR,16aS,Z)-2-((3,4-dihydro-2H-pyrano[2,3-f]isoquinolin-7-yl)oxy)-7,9-dimethyl-14a-(((1-methylcyclopropyl)sulfonyl)carbamoyl)-5,16-dioxo-1,2,3,5,6,7,8,9,10,11,13a,14,14a,15,16,16a-hexadecahydrocyclopropa[e]pyrrolo[1,2-a][1,4]diazacyclopentadecin-6-yl)carbamate]	1.01 to 5	0.51 to 1	–
C[C@@H]1CC/C=C\[C@@H]2C[C@@]2(C(=O)NS(=O)(=O)C2CC2)NC(=O)[C@@H]2C[C@@H](Oc3nccc4c5c(ccc34)N(C)CCO5)CN2C(=O)[C@@H](NC(=O)O[C@@H]2C[C@@H]3C[C@@H]3C2)[C@H](C)C1 [Compound 5292, (1R,3r,5S)-bicyclo[3.1.0]hexan-3-yl((2R,6S,7R,9R,13aS,14aR,16aS,Z)-14a-((cyclopropylsulfonyl)carbamoyl)-7,9-dimethyl-2-((4-methyl-3,4-dihydro-2H-[1,4]oxazino[2,3-f]isoquinolin-7-yl)oxy)-5,16-dioxo-1,2,3,5,6,7,8,9,10,11,13a,14,14a,15,16,16a-hexadecahydrocyclopropa[e]pyrrolo[1,2-a][1,4]diazacyclopentadecin-6-yl)carbamate]	< 5.46	< 5.46	–
COCC(C)(C)OC(=O)N[C@@H]1C(=O)N2C[C@H](Oc3ncc(OC)c4ccccc34)C[C@H]2C(=O)N[C@]2(C(=O)NS(=O)(=O)C3(CF)CC3)C[C@H]2/C=C\CC[C@@H](C)C[C@H]1C [Compound 1050, 1-methoxy-2-methylpropan-2-yl((2R,6S,7R,9R,13aS,14aR,16aS,Z)-14a-(((1-(fluoromethyl)cyclopropyl)sulfonyl)carbamoyl)-2-((4-methoxyisoquinolin-1-yl)oxy)-7,9-dimethyl-5,16-dioxo-1,2,3,5,6,7,8,9,10,11,13a,14,14a,15,16,16a-hexadecahydrocyclopropa[e]pyrrolo[1,2-a][1,4]diazacyclopentadecin-6-yl)carbamate]	–	–	EC50 [1, 7]: < 5.46 nM; EC50 [2, 8]: < 5.46 nM
COc1cnc(O[C@@H]2C[C@H]3C(=O)N[C@]4(C(=O)NS(=O)(=O)C5(Cl)CC5)C[C@H]4/C=C\CC[C@@H](C)C[C@@H](C)[C@H](NC(=O)OC(C)(C)C(F)(F)F)C(=O)N3C2)c2ccccc12 [Compound 4153]	–	–	EC50 [1, 9]: < 5.46 nM; EC50 [2, 10]: < 5.46 nM
COc1cc2c(OC)cnc(O[C@@H]3C[C@H]4C(=O)N[C@]5(C(=O)NS(=O)(=O)C6(C)CC6)C[C@H]5/C=C\CC[C@@H](C)C[C@@H](C)[C@H](NC(=O)OC(C)(C)C(F)(F)F)C(=O)N4C3)c2cc1F [Compound 4164]	–	–	EC50 [1, 9]: < 5.46 nM; EC50 [2, 10]: < 5.46 nM
[2H]C([2H])([2H])C(C)(OC(=O)N[C@@H]1C(=O)N2C[C@H](Oc3nccc4cc(OC)ccc34)CC2C(=O)N[C@]2(C(=O)NS(=O)(=O)C3(C)CC3)C[C@H]2/C=C\CC[C@@H](C)C[C@H]1C)C([2H])([2H])[2H] (stereo partly drawn) [Compound 5177, 1,1,1,3,3,3-hexadeutero-2-methylpropan-2-yl((2R,6S,7R,9R,13aS,14aR,16aS,Z)-2-((6-methoxyisoquinolin-1-yl)oxy)-7,9-dimethyl-14a-(((1-methylcyclopropyl)sulfonyl)carbamoyl)-5,16-dioxo-1,2,3,5,6,7,8,9,10,11,13a,14,14a,15,16,16a-hexadecahydrocyclopropa[e]pyrrolo[1,2-a][1,4]diazacyclopentadecin-6-yl)carbamate]	< 5.46	< 5.46	–
COCCOc1cnc(O[C@@H]2C[C@H]3C(=O)N[C@]4(C(=O)NS(=O)(=O)C5CC5)C[C@H]4/C=C\CC[C@H](C)C[C@@H](C)[C@H](NC(=O)OC(C)(C)C(C)(F)F)C(=O)N3C2)c2ccc(OC)cc12 [Compound 1150, 3,3-difluoro-2-methylbutan-2-yl((2R,6S,7R,9S,13aS,14aR,16aS,Z)-14a-((cyclopropylsulfonyl)carbamoyl)-2-((6-methoxy-4-(2-methoxyethoxyl)isoquinolin-1-yl)oxy)-7,9-dimethyl-5,16-dioxo-1,2,3,5,6,7,8,9,10,11,13a,14,14a,15,16,16a-hexadecahydrocyclopropa[e]pyrrolo[1,2-a][1,4]diazacyclopentadecin-6-yl)carbamate]	–	–	EC50 [1, 7]: < 5.46 nM; EC50 [2, 8]: < 5.46 nM
CCOc1ccc2nc(O)c(O[C@@H]3C[C@H]4C(=O)N[C@]5(C(=O)NS(=O)(=O)C6(C)CC6)C[C@H]5/C=C\CC[C@@H](C)C[C@@H](CC)[C@H](NC(=O)OC(C)(C)C)C(=O)N4C3)nc2c1 [Compound 4361, tert-butyl ((2R,6S,7R,9R,13aS,14aR,16aS,Z)-2-((7-ethoxy-3-hydroxyquinoxalin-2-yl)oxy)-7-ethyl-9-methyl-14a-(((1-methylcyclopropyl)sulfonyl)carbamoyl)-5,16-dioxo-1,2,3,5,6,7,8,9,10,11,13a,14,14a,15,16,16a-hexadecahydrocyclopropa[e]pyrrolo[1,2-a][1,4]diazacyclopentadecin-6-yl)carbamate]	35 to 620	5.01 to 35	–
